# From patent US10526323B2, “Indazole and azaindazole substituted compounds as mGluR4 allosteric potentiators, compositions, and methods of treating neurological dysfunction” (Vanderbilt University, priority 2015, dated 2020)
# Molecular target: mGluR4 (UniProt Q14833)
# Assay: mGluR4 potentiation assay: increase in response to an EC20 concentration of agonist (species not given)
# Assay type: cell-based
# Conditions: EC50 for potentiation of mGluR4; table does not state human or rat
# Method: The disclosed compounds and compositions can be evaluated for their ability to act as a potentiator of metabotropic glutamate receptor activity, in particular mGluR4 activity, by any suitable known methodology known in the art. For example, Chinese Hamster Ovary (CHO) cells transfected with human mGluR4 or […] co-transfected with rat mGluR4 and the G-protein regulated Inwardly Rectifying Potassium channel (GIRK) were plated in clear bottom assay plates for assay in a Hamamatsu FDSS Fluorometric Plate Reader. The cells were loaded with either a Ca2+-sensitive fluorescent dye or the thallium responsive dye and the plates were washed and placed into a suitable kinetic plate reader. For human mGluR4 assays, a fluorescence baseline was established for 3-5 seconds, the disclosed compounds were then added to the cells, and the response in cells was measured. Approximately two and a half minutes later, a concentration of mGluR4 orthosteric agonist (e.g. glutamate or L-AP4) eliciting approximately 20% (EC20) of the maximal agonist response was added to the cells, and the response was measured. Two minutes later, a concentration of mGluR4 agonist (e.g. glutamate or L-AP4) eliciting 80% (EC80) of the maximal agonist response was added to the cells, and the response was measured. For rat mGluR4/GIRK experiments, a baseline was established for approximately five seconds, disclosed compounds were added, and either an EC20 or EC80 concentration of agonist was added approximately two and one half minutes later. Potentiation of the agonist response of mGluR4 by the disclosed compounds was observed as an increase in response to the EC20 concentration of agonist in the presence of compound compared to the response to agonist in the absence of compound. Similarly, antagonism of the agonist response of mGluR4 by the disclosed compounds was observed as a decrease in response to the EC80 concentration of agonist in the presence of compound compared to the response to agonist in the absence of compound.
# The above described assay operated in two modes. In the first mode, a range of concentrations of the disclosed compounds are added to cells, followed by a single fixed concentration of agonist. If the compound acts as a potentiator, an EC50 value for potentiation and a maximum extent of potentiation by the compound at this concentration of agonist is determined by non-linear curve fitting. If the compound acts as a noncompetitive antagonist, an IC50 value is determined by non-linear curve fitting. In the second mode, several fixed concentrations of the disclosed compounds are added to various wells on a plate, followed by a range in concentrations of agonist for each concentration of disclosed compound. The EC50 values for the agonist at each concentration of compound are determined by non-linear curve fitting. A decrease in the EC50 value of the agonist with increasing concentrations of the sample compound (a leftward shift of the agonist concentration-response curve) is an indication of the degree of mGluR4 potentiation at a given concentration of the sample compound. A decrease in the maximal response of the agonist with increasing concentrations of the sample compounds, with or without a rightward shift in agonist potency, is an indication of the degree of noncompetitive antagonism at mGluR4. The second mode also indicates whether the sample compounds also affect the maximum response to mGluR4 to agonists.
# These compounds are positive allosteric modulators (potentiators) of human and rat mGluR4 and were selective for mGluR4 compared to the other seven subtypes of metabotropic glutamate receptors.
compound,measurement,value
"Cc1nn(CC2CC(C(C)C)=NO2)c2ccc(Nc3n[nH]c4cccnc34)cc12 (stereo not shown) [Example 120, N-(1-((3-isopropyl-4,5-dihydroisoxazol-5-yl)methyl)-3-methyl-1H-indazol-5-yl)-1H-pyrazolo[4,3-b]pyridin-3-amine]",EC50,144 nM
"CCCCn1nc(C)c2cc(Nc3n[nH]c4cccnc34)ccc21 [Example 114, N-(1-butyl-3-methyl-1H-indazol-5-yl)-1H-pyrazolo[4,3-b]pyridin-3-amine]",EC50,45 nM
"Cc1nn(C)c2ncc(Nc3n[nH]c4ccccc34)cc12 [Example 271, N-(1H-indazol-3-yl)-1,3-dimethyl-1H-pyrazolo[3,4-b]pyridin-5-amine]",EC50,> 10000 nM
"Cn1nc(S(C)(=O)=O)c2ccc(Nc3n[nH]c4nccnc34)cc21 [Example 187, N-(1-methyl-3-(methylsulfonyl)-1H-indazol-6-yl)-1H-pyrazolo[3,4-b]pyrazin-3-amine]",EC50,2360 nM
Cn1ncc2cc(Nc3n[nH]c4nccnc34)ccc21 [Example 84],EC50,818 nM
"c1nc2cnn(CC3CCC3)c2cc1Nc1n[nH]c2c1CCCC2 [Example 150, 1-(cyclobutylmethyl)-N-(4,5,6,7-tetrahydro-1H-indazol-3-yl)-1H-pyrazolo[4,3-b]pyridin-6-amine]",EC50,> 10000 nM
"Cn1nc(C(=O)N2CCCC(F)(F)C2)c2ccc(Nc3n[nH]c4cccnc34)cc21 [Example 160, (3,3-difluoro-1-piperidyl)-[1-methyl-6-(1H-pyrazolo[4,3-b]pyridin-3-ylamino)indazol-3-yl]methanone]",EC50,888 nM
"Cn1nc(OCC2CC2(F)F)c2ccc(Nc3n[nH]c4cccnc34)cc21 (stereo not shown) [Example 188, N-[3-[(2,2-difluorocyclopropyl)methoxy]-1-methyl-indazol-6-yl]-1H-pyrazolo[4,3-b]pyridin-3-amine]",EC50,112 nM
"Cc1c2cc(Nc3n[nH]c4cccnc34)ccc2nn1C(C)(C)C [Example 98, N-(2-(tert-butyl)-3-methyl-2H-indazol-5-yl)-1H-pyrazolo[4,3-b]pyridin-3-amine]",EC50,> 10000 nM
"[2H]C([2H])([2H])n1ncc2cc(Nc3n[nH]c4cccnc34)ccc21 [Example 96, N-(1-(methyl-d3)-1H-indazol-5-yl)-1H-pyrazolo[4,3-b]pyridin-3-amine]",EC50,863 nM
"Clc1cc(Nc2n[nH]c3nccnc23)cc2cnn(CC3CCC3)c12 [Example 64, N-(7-chloro-1-(cyclobutylmethyl)-1H-indazol-5-yl)-1H-pyrazolo[3,4-b]pyrazin-3-amine]",EC50,67 nM
"Clc1nn(C2CCC2)c2ccc(Nc3n[nH]c4cccnc34)cc12 [Example 276, N-(3-chloro-1-cyclobutyl-1H-indazol-5-yl)-1H-pyrazolo[4,3-b]pyridin-3-amine]",EC50,> 10000 nM
"CC(C)n1ncc2cc(Nc3n[nH]c4nccnc34)cc(Cl)c21 [Example 60, N-(7-chloro-1-isopropyl-1H-indazol-5-yl)-1H-pyrazolo[3,4-b]pyrazin-3-amine]",EC50,790 nM
"CCCn1nc(C)c2cc(Nc3n[nH]c4nccnc34)ccc21 [Example 131, N-(3-methyl-1-propyl-1H-indazol-5-yl)-1H-pyrazolo[3,4-b]pyrazin-3-amine]",EC50,107 nM
"CC(C)COc1nn(C)c2cc(Nc3n[nH]c4cccnc34)ccc12 [Example 244, N-(3-isobutoxy-1-methyl-1H-indazol-6-yl)-1H-pyrazolo[4,3-b]pyridin-3-amine]",EC50,231 nM
"c1cnc2c(Nc3ccc4c(cnn4CC4CCC4)c3)n[nH]c2c1 [Example 80, N-(1-(cyclobutylmethyl)-1H-indazol-5-yl)-1H-pyrazolo[4,3-b]pyridin-3-amine]",EC50,167 nM
"c1ccc2c(Nc3ccc4c(cnn4CC4CCC4)c3)n[nH]c2c1 [Example 86, N-(1-(cyclobutylmethyl)-1H-indazol-5-yl)-1H-indazol-3-amine]",EC50,51.4 nM
"Cn1nc(C(F)(F)F)c2cc(Nc3n[nH]c4cccnc34)ccc21 [Example 110, N-(1-methyl-3-(trifluoromethyl)-1H-indazol-5-yl)-1H-pyrazolo[4,3-b]pyridin-3-amine]",EC50,119 nM
"Cn1ncc2cc(Nc3n[nH]c4c3CCCC4)cc(Cl)c21 [Example 67, 7-chloro-1-methyl-N-(4,5,6,7-tetrahydro-1H-indazol-3-yl)-1H-indazol-5-amine]",EC50,> 10000 nM
"Cn1nc(N2CC(C)(C3CC3)CC2=O)c2ccc(Nc3n[nH]c4cccnc34)cc21 (stereo not shown) [Example 39, 1-(6-((1H-pyrazolo[4,3-b]pyridin-3-yl)amino)-1-methyl-1H-indazol-3-yl)-4-cyclopropyl-4-methylpyrrolidin-2-one]",EC50,765 nM
"Cn1nc(C(=O)N2CCCC2)c2ccc(Nc3n[nH]c4cccnc34)cc21 [Example 173, [1-methyl-6-(1H-pyrazolo[4,3-b]pyridin-3-ylamino)indazol-3-yl]-pyrrolidin-1-yl-methanone]",EC50,825 nM
"[2H]C([2H])([2H])n1nc(C2CC2)c2ccc(Nc3n[nH]c4ncccc34)cc21 [Example 43, N-(3-cyclopropyl-1-(methyl-d3)-1H-indazol-6-yl)-1H-pyrazolo[3,4-b]pyridin-3-amine]",EC50,160 nM
"Cc1nn(C2CCNCC2)c2ccc(Nc3n[nH]c4cccnc34)cc12 [Example 90, N-(3-methyl-1-(piperidin-4-yl)-1H-indazol-5-yl)-1H-pyrazolo[4,3-b]pyridin-3-amine]",EC50,> 10000 nM
"Cn1nc(OCCN2CCOCC2)c2ccc(Nc3n[nH]c4cccnc34)cc21 [Example 217, N-[1-methyl-3-(2-morpholinoethoxy)indazol-6-yl]-1H-pyrazolo[4,3-b]pyridin-3-amine]",EC50,238 nM
"Cn1nc(OCc2cccnc2)c2ccc(Nc3n[nH]c4cccnc34)cc21 [Example 184, N-(1-methyl-3-(pyridin-3-ylmethoxy)-1H-indazol-6-yl)-1H-pyrazolo[4,3-b]pyridin-3-amine]",EC50,83 nM
"CCn1nc(C)c2cc(Nc3n[nH]c4cccnc34)cnc21 [Example 258, 1-ethyl-3-methyl-N-(1H-pyrazolo[4,3-b]pyridin-3-yl)pyrazolo[3,4-b]pyridin-5-amine]",EC50,480 nM
"Cn1nc(OC2CCS(=O)(=O)CC2)c2ccc(Nc3n[nH]c4cccnc34)cc21 [Example 192, N-[3-(1,1-dioxothian-4-yl)oxy-1-methyl-indazol-6-yl]-1H-pyrazolo[4,3-b]pyridin-3-amine]",EC50,185 nM
"Cn1nc(O)c2ccc(Nc3n[nH]c4cccnc34)cc21 [Example 37, 6-((1H-pyrazolo[4,3-b]pyridin-3-yl)amino)-1-methyl-1H-indazol-3-ol]",EC50,3150 nM
"Cn1nc(C(=O)NCCCS(C)(=O)=O)c2ccc(Nc3n[nH]c4cccnc34)cc21 [Example 169, 1-methyl-N-(3-methylsulfonylpropyl)-6-(1H-pyrazolo[4,3-b]pyridin-3-ylamino)indazole-3-carboxamide]",EC50,4610 nM
"Cn1nc(C(=O)N2CCS(=O)(=O)CC2)c2ccc(Nc3n[nH]c4cccnc34)cc21 [Example 165, (1,1-dioxo-1,4-thiazinan-4-yl)-[1-methyl-6-(1H-pyrazolo[4,3-b]pyridin-3-ylamino)indazol-3-yl]methanone]",EC50,801 nM
"Cn1nc(C2CC2)c2ccc(Nc3n[nH]c4c3CC(F)(F)CC4)cc21 [Example 14, 3-cyclopropyl-N-(5,5-difluoro-4,5,6,7-tetrahydro-1H-indazol-3-yl)-1-methyl-1H-indazol-6-amine]",EC50,> 10000 nM
